Usually solubility stands for how much of the substance goes into solution per volume. The low end stands for a poorly soluble substance, the high end for a readily soluble substance.

The structures appear in SMILES notation. ≈ marks a conversion by molar mass, not a printed value.

The record followed here is patent US12357630B2, “Ceritinib formulation” (Novartis AG, priority 2014, dated 2025).

Data set [1] in a line: Permeability / Biopharmaceutics Classification System. Format: in vitro ADME. Here is the method: (§1) Ceritinib is a difficult compound to formulate. […] In addition, physical characteristics of Ceritinib cause sticking and picking during tableting or encapsulation of the drug and make it poorly compressible. Furthermore, the drug is administered at a high dose of 750 mg, which would require a patient to take daily up to 5 units of 150 mg. If the dose is to be increased in a respective dosage form, the increase in drug load generally negatively affects the compressibility of a tablet. Ceritinib's sticky nature causes a high drug load to further negatively influence the manufacturing of tablets due to enhanced sticking/picking.

Another data set can be described thus: Solubility in water. Conditions: 25° C. Format: physicochemical. Here is the method: as §1

As to `Cc1cc(Nc2ncc(Cl)c(Nc3ccccc3S(=O)(=O)C(C)C)n2)c(OC(C)C)cc1C1CCNCC1` [Ceritinib, 5-chloro-N^2-(2-isopropoxy-5-methyl-4-(piperidin-4-yl)phenyl)-N^4-[2-(propane-2-sulfonyl)-phenyl]-pyrimidine-2,4-diamine], the permeability entry in data set [1] was “low permeability”. In the data set “Solubility in water”, this compound yielded a solubility of 20 µg/mL (≈ 35.8 µM).
